Laboratory results reported in patent US7115617B2, “Amino-substituted pyrimidinyl derivatives and methods of use” (Amgen Inc., priority 2001, dated 2006).

Test system: 3T3 proliferation
Assay: IGF-1-induced DNA synthesis (3H-thymidine incorporation)
Assay type: cell-based
Details: Rattus norvegicus; activated overnight with 50 ng/mL IGF-1; read-out: inhibited 3T3 proliferation (IC50, thymidine incorporation)
Method: Human tumor cell lines or a rat fibroblast cell line are plated out in flat-well plates in complete medium and allowed to adhere overnight. The cells are then starved in medium containing 0.1% bovine serum albumin (BSA) overnight, pre-incubated for 1 h with or without dilutions of compound, then activated overnight with 50 ng/mL insulin-like growth factor (IGF-1). Proliferation is determined by the level of ^3H-thymidine incorporation into DNA. IC50's are determined by comparing the level of thymidine incorporation found in the presence of compound compared to controls.

SMILES	IC50
COc1cc(Nc2nccc(Nc3cc(C4CCCCC4)no3)n2)cc(OC)c1OC [Example 17, N^2-(3,4,5-Trimethoxyphenyl)-N^4-(3-cyclohexylisoxazol-5-yl)-2,4-pyrimidinediamine]	< 150 nM
COc1cc(Nc2nccc(Nc3cc(-c4ccccc4)on3)n2)cc(OC)c1OC [Example 15, N^2-(3,4,5-Trimethoxyphenyl)-N^4-(5-phenylisoxazol-3-yl)-2,4-pyrimidinediamine]	< 150 nM
COc1cc(Nc2nccc(Nc3cc(-c4ccccc4)on3)n2)ccc1N1CCOCC1 [Example 14, N^2-(3-Methoxy-4-morpholin-4-yl-phenyl)-N^4-(5-phenyl-isoxazol-3-yl)-pyrimidine-2,4-diamine]	< 150 nM
COc1cc(C)c(Nc2nccc(Nc3cc(C45CC6CC(CC(C6)C4)C5)on3)n2)cc1OC [Example 18, N^2-(4,5-Dimethoxy-2-methylphenyl)-N^4-(5-adamantylisoxazol-3-yl)-2,4-pyrimidinediamine]	< 150 nM
